We go through 5 compounds from patent publication US8895504B2, “Amylin derivatives” (priority 2008, dated 2014).

The target in the test is T1, Amylin 3(a) receptor (human calcitonin receptor (CTa) and RAMP-3) (Homo sapiens, UniProt O60896+P30988).
T1 construct: expressed in transfected cells; host or cells: BHK570 cells, stably transfected with a CRE-luciferase reporter
In words: Luciferase assay (III), BHK Amylin 3(a)//CRE-luc cells. Format: cell-based. The settings on record: BHK cells with Amylin 3(a) receptor and CRE luciferase reporter, 4 hours incubation; read-out: Potency Luciferase. The text has this:
It has previously been published (Poyner D R et al 2002, Pharmacological Reviews 54(2) 233-246) that activation of Amylin receptors (coexpression of Calcitonin receptor and receptor activity modifying peptides RAMPs) by Amylin leads to an increase in the intracellular concentration of cAMP. Consequently, transcription is activated at promoters containing multiple copies of the cAMP response element (CRE). It is thus possible to measure Amylin activity by use of a CRE luciferase reporter gene introduced into BHK cells also expressing an Amylin receptor.
2. Construction of an Amylin 3(a)/CRE-luc Cell Line
A BHK570 cell line stably transfected with the human calcitonin receptor (CTa) and a CRE-responsive luciferase reportergene. The cell line was further transfected with RAMP-3, using standard methods. This turns the Calcitonin receptor into an Amylin 3(a) receptor. Methotrexate, Neomycin, and Hygromycin are selection markers for luciferase, the Calcitonin receptor, and RAMP-3, respectively.
3. Amylin Luciferase Assay
To perform activity assays, BHK Amylin 3(a)//CRE-luc cells were seeded in white 96 well culture plates at a density of about 20,000 cells/well. The cells were in 100 μl growth medium (DMEM with 10% FBS, 1% Pen/Strep, 1 mM Na-pyruvate, 250 nM Methotrexate, 500 μg/ml Neomycin, and 400 μg/ml Hygromycin). After incubation overnight at 37° C. and 5% CO2, the growth medium was replaced by 50 μl/well assay medium (DMEM (without phenol red), Glumamax™, 10% FBS, and 10 mM Hepes, pH 7,4). Further, 50 μl/well of standard or sample in assay buffer were added. After 4 hours incubation at 37° C. and 5% CO2, the assay medium with standard or sample were removed and replaced by 100 μl/well PBS. Further, 100 μl/well LucLite™ was added. The plates were sealed and incubated at room temperature for 30 minutes. Finally, luminescence was measured on a TopCounter (Packard) in SPC (single photon counting) mode.

The structures appear in SMILES notation. *1 amine or outer side, *2 acyl side, *3 side chain or, on linkers, in order; H or OH if unused. Where a SMILES comes first, the peptide text is derived from it. Bridges are numbered along the chain shown (N, C = ends). The star is where a group is joined. C20 diacid = O=C(O)CCCCCCCCCCCCCCCCCCC(=O)*; C18 diacid = O=C(O)CCCCCCCCCCCCCCCCC(=O)*; γGlu = O=C(O)[C@H](CCC(=O)[*:2])N[*:1]; AEEA = NCCOCCOCC(=O)O

T1 sequence (O60896 24-148): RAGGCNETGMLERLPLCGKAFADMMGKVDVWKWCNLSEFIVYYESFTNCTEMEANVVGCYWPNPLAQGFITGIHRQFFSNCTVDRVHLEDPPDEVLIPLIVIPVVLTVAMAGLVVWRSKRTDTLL
T1 sequence (P30988 25-474): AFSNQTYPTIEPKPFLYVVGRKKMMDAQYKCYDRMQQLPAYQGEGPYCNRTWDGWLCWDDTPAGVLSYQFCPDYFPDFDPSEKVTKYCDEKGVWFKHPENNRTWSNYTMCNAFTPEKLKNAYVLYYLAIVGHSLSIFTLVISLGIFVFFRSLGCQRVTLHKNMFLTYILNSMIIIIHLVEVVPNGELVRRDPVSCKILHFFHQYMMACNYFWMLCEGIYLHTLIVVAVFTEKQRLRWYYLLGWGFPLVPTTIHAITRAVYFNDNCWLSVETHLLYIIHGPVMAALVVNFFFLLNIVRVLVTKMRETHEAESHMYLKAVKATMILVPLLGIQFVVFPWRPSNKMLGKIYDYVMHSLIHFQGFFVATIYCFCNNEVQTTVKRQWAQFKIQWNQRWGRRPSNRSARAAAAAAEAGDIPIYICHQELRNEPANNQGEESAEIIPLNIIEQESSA

With `CC[C@H](C)[C@H](NC(=O)[C@@H]1CCCN1C(=O)CNC(=O)[C@H](Cc1ccccc1)NC(=O)[C@H](CC(N)=O)NC(=O)[C@H](CC(N)=O)NC(=O)[C@H](CO)NC(=O)[C@H](CO)NC(=O)[C@H](Cc1c[nH]cn1)NC(=O)[C@H](Cc1c[nH]cn1)NC(=O)[C@H](CC(C)C)NC(=O)[C@H](Cc1ccccc1)NC(=O)[C@H](CC(N)=O)NC(=O)[C@H](C)NC(=O)[C@H](CC(C)C)NC(=O)[C@H](CCCNC(=N)N)NC(=O)[C@H](CCC(N)=O)NC(=O)[C@@H](NC(=O)[C@H](C)NC(=O)[C@@H]1CSSC[C@H](NC(=O)[C@H](CCCNC(=N)N)NC(=O)[C@H](Cc2c[nH]cn2)NC(=O)[C@H](Cc2c[nH]cn2)NC(=O)CC[C@H](NC(=O)CCCCCCCCCCCCCCCCCCC(=O)O)C(=O)O)C(=O)N[C@@H](CC(N)=O)C(=O)N[C@@H]([C@@H](C)O)C(=O)N[C@@H](C)C(=O)N[C@@H]([C@@H](C)O)C(=O)N1)[C@@H](C)O)C(=O)N[C@@H](CC(C)C)C(=O)N1CCC[C@H]1C(=O)N1CCC[C@H]1C(=O)N[C@H](C(=O)N[C@@H](CC(N)=O)C(=O)N[C@H](C(=O)NCC(=O)N[C@@H](CO)C(=O)N[C@@H](CC(N)=O)C(=O)N[C@H](C(=O)N[C@@H](Cc1ccc(O)cc1)C(N)=O)[C@@H](C)O)C(C)C)[C@@H](C)O` [Example 71, N-alpha-[(S)-4-Carboxy-4-(19-carboxynonadecanoylamino)butyryl]-His-His-[Arg1,His17]-pramlintide] ({C20 diacid-γGlu}-HHRCNTATCATQRLANFLHHSSNNFGPILPPTNVGSNTY-NH2; disulfide 4-9), the EC50 was found to be 90 pM.

Consider `CC[C@H](C)[C@H](NC(=O)[C@@H]1CCCN1C(=O)CNC(=O)[C@H](Cc1ccccc1)NC(=O)[C@H](CC(N)=O)NC(=O)[C@H](CC(N)=O)NC(=O)[C@H](CO)NC(=O)[C@H](CO)NC(=O)[C@H](Cc1c[nH]cn1)NC(=O)CNC(=O)[C@H](CC(C)C)NC(=O)[C@H](Cc1ccccc1)NC(=O)[C@H](CC(N)=O)NC(=O)[C@H](C)NC(=O)[C@H](CC(C)C)NC(=O)[C@H](CCCNC(=N)N)NC(=O)[C@H](CCC(N)=O)NC(=O)[C@@H](NC(=O)[C@H](C)NC(=O)[C@@H]1CSSC[C@H](NC(=O)[C@H](CCCCN)NC(=O)[C@H](CCCNC(=N)N)NC(=O)CC[C@H](NC(=O)CCCCCCCCCCCCCCCCCCC(=O)O)C(=O)O)C(=O)N[C@@H](CC(N)=O)C(=O)N[C@@H]([C@@H](C)O)C(=O)N[C@@H](C)C(=O)N[C@@H]([C@@H](C)O)C(=O)N1)[C@@H](C)O)C(=O)N[C@@H](CC(C)C)C(=O)N1CCC[C@H]1C(=O)N1CCC[C@H]1C(=O)N[C@H](C(=O)N[C@@H](CC(N)=O)C(=O)N[C@H](C(=O)NCC(=O)N[C@@H](CO)C(=O)N[C@@H](CC(N)=O)C(=O)N[C@H](C(=O)N[C@@H](Cc1ccc(O)cc1)C(N)=O)[C@@H](C)O)C(C)C)[C@@H](C)O` [Example 18, N-alpha-[(S)-4-Carboxy-4-(19-carboxynonadecanoylamino)butyryl]-Arg-[Gly17]-pramlintide] ({C20 diacid-γGlu}-RKCNTATCATQRLANFLGHSSNNFGPILPPTNVGSNTY-NH2; disulfide 3-8), for which the EC50 is 100 pM.

`CC[C@H](C)[C@H](NC(=O)[C@@H]1CCCN1C(=O)CNC(=O)[C@H](Cc1ccccc1)NC(=O)[C@H](CC(N)=O)NC(=O)[C@H](CC(N)=O)NC(=O)[C@H](CO)NC(=O)[C@H](CO)NC(=O)[C@H](Cc1c[nH]cn1)NC(=O)[C@H](CCCNC(=N)N)NC(=O)[C@H](CC(C)C)NC(=O)[C@H](Cc1ccccc1)NC(=O)[C@H](CC(N)=O)NC(=O)[C@H](C)NC(=O)[C@H](CC(C)C)NC(=O)[C@H](CCCNC(=N)N)NC(=O)[C@H](CCC(N)=O)NC(=O)[C@@H](NC(=O)[C@H](C)NC(=O)[C@@H]1CSSC[C@H](NC(=O)[C@H](CCCNC(=N)N)NC(=O)[C@H](Cc2c[nH]cn2)NC(=O)[C@H](Cc2c[nH]cn2)NC(=O)COCCOCCNC(=O)CC[C@H](NC(=O)CCCCCCCCCCCCCCCCCCC(=O)O)C(=O)O)C(=O)N[C@@H](CC(N)=O)C(=O)N[C@@H]([C@@H](C)O)C(=O)N[C@@H](C)C(=O)N[C@@H]([C@@H](C)O)C(=O)N1)[C@@H](C)O)C(=O)N[C@@H](CC(C)C)C(=O)N1CCC[C@H]1C(=O)N1CCC[C@H]1C(=O)N[C@H](C(=O)N[C@@H](CC(N)=O)C(=O)N[C@H](C(=O)NCC(=O)N[C@@H](CO)C(=O)N[C@@H](CC(N)=O)C(=O)N[C@H](C(=O)N[C@@H](Cc1ccc(O)cc1)C(N)=O)[C@@H](C)O)C(C)C)[C@@H](C)O` [Example 57, N-alpha-[2-(2-{2-[4-(S)-Carboxy-4-(19-carboxynonadecanoylamino)butyrylamino]ethoxy}ethoxy)acetyl]-His-His-[Arg1,Arg17]-pramlintide] ({C20 diacid-γGlu-AEEA}-HHRCNTATCATQRLANFLRHSSNNFGPILPPTNVGSNTY-NH2; disulfide 4-9): the EC50 amounted to 300 pM.

Regarding `CC[C@H](C)[C@H](NC(=O)[C@@H]1CCCN1C(=O)CNC(=O)[C@H](Cc1ccccc1)NC(=O)[C@H](CC(N)=O)NC(=O)[C@H](CCC(N)=O)NC(=O)[C@H](CO)NC(=O)[C@H](CO)NC(=O)[C@H](Cc1c[nH]cn1)NC(=O)[C@H](CCCNC(=N)N)NC(=O)[C@H](CC(C)C)NC(=O)[C@H](Cc1ccccc1)NC(=O)[C@H](CC(N)=O)NC(=O)[C@H](C)NC(=O)[C@H](CC(C)C)NC(=O)[C@H](CCCNC(=N)N)NC(=O)[C@H](CCC(N)=O)NC(=O)[C@@H](NC(=O)[C@H](C)NC(=O)[C@@H]1CSSC[C@H](NC(=O)[C@H](CCCNC(=N)N)NC(=O)[C@H](Cc2c[nH]cn2)NC(=O)[C@H](Cc2c[nH]cn2)NC(=O)[C@H](CCC(=O)O)NC(=O)CC[C@H](NC(=O)CCCCCCCCCCCCCCCCCCC(=O)O)C(=O)O)C(=O)N[C@@H](CC(N)=O)C(=O)N[C@@H]([C@@H](C)O)C(=O)N[C@@H](C)C(=O)N[C@@H]([C@@H](C)O)C(=O)N1)[C@@H](C)O)C(=O)N[C@@H](CC(C)C)C(=O)N1CCC[C@H]1C(=O)N1CCC[C@H]1C(=O)N[C@H](C(=O)N[C@@H](CC(N)=O)C(=O)N[C@H](C(=O)NCC(=O)N[C@@H](CO)C(=O)N[C@@H](CC(N)=O)C(=O)N[C@H](C(=O)N[C@@H](Cc1ccc(O)cc1)C(N)=O)[C@@H](C)O)C(C)C)[C@@H](C)O` [Example 68, N-alpha-[(S)-4-Carboxy-4-(19-carboxynonadecanoylamino)butyryl]-Glu-His-His-[Arg1,Arg17,Gln21]-pramlintide] ({C20 diacid-γGlu}-EHHRCNTATCATQRLANFLRHSSQNFGPILPPTNVGSNTY-NH2; disulfide 5-10), the EC50 was 100 pM.

In the case of `CC[C@H](C)[C@H](NC(=O)[C@@H]1CCCN1C(=O)CNC(=O)[C@H](Cc1ccccc1)NC(=O)[C@H](CC(N)=O)NC(=O)[C@H](CC(N)=O)NC(=O)[C@H](CO)NC(=O)[C@H](CO)NC(=O)[C@H](Cc1c[nH]cn1)NC(=O)[C@H](Cc1c[nH]cn1)NC(=O)[C@H](CC(C)C)NC(=O)[C@H](Cc1ccccc1)NC(=O)[C@H](CC(N)=O)NC(=O)[C@H](C)NC(=O)[C@H](CC(C)C)NC(=O)[C@H](CCCNC(=N)N)NC(=O)[C@H](CCC(N)=O)NC(=O)[C@@H](NC(=O)[C@H](C)NC(=O)[C@@H]1CSSC[C@H](NC(=O)[C@H](Cc2c[nH]cn2)NC(=O)CC[C@H](NC(=O)CCCCCCCCCCCCCCCCC(=O)O)C(=O)O)C(=O)N[C@@H](CC(N)=O)C(=O)N[C@@H]([C@@H](C)O)C(=O)N[C@@H](C)C(=O)N[C@@H]([C@@H](C)O)C(=O)N1)[C@@H](C)O)C(=O)N[C@@H](CC(C)C)C(=O)N1CCC[C@H]1C(=O)N1CCC[C@H]1C(=O)N[C@H](C(=O)N[C@@H](CC(N)=O)C(=O)N[C@H](C(=O)NCC(=O)N[C@@H](CO)C(=O)N[C@@H](CC(N)=O)C(=O)N[C@H](C(=O)N[C@@H](Cc1ccc(O)cc1)C(N)=O)[C@@H](C)O)C(C)C)[C@@H](C)O` [Example 32, N-alpha-[(S)-4-Carboxy-4-(17-carboxyheptadecanoylamino)butyryl]-[His1,His17]-pramlintide] ({C18 diacid-γGlu}-HCNTATCATQRLANFLHHSSNNFGPILPPTNVGSNTY-NH2; disulfide 2-7), the EC50 amounted to 80 pM.
